Where “and” joins values, the source holds several entries; their conditions need not be identical. Equal entries are not always repeated.
Legend:
VCaP cells = experiment: MTT viability assay, VCaP cells; format: cell-based; conditions: Homo sapiens, VCaP; 72 h, full media, MTT; read-out: IC50, viability of VCaP cells
Description: (§1) Biological Characterization. ITC-ARi hybrid drugs effectively reduce the viability of PCa cells. By using an MTT assay, it was first examined if the newly synthesized hybrid drugs affect the viability of CRPC-relevant PCa cells. PCa VCaP cells naturally express abundant wild type FL AR as well as AR splice variants (e.g., AR-V7). These cells were, therefore, used as one of the cell culture models in this work to investigate the drug-caused viability loss and AR downregulation.

22Rv1 cells = experiment: MTT viability assay, 22Rv1 cells; format: cell-based; conditions: 5 μM, 72 h
Description: as §1

FL AR and AR-V7 [1] = molecular target: T1, FL AR and AR-V7 (Homo sapiens, UniProt P10275); experiment: Western blotting of FL AR and AR-V7 in VCaP cells; format: cell-based; conditions: full media, 16 h, 2-63, 12b 5 and 15 μM, Enz 10 μM, SAHA 1 μM
T1 construct: Whole cell lysates were subjected to Western blotting and probed with the indicated antibodies; endogenous in cells; host or cells: VCaP
T1 sequence (P10275 1-920): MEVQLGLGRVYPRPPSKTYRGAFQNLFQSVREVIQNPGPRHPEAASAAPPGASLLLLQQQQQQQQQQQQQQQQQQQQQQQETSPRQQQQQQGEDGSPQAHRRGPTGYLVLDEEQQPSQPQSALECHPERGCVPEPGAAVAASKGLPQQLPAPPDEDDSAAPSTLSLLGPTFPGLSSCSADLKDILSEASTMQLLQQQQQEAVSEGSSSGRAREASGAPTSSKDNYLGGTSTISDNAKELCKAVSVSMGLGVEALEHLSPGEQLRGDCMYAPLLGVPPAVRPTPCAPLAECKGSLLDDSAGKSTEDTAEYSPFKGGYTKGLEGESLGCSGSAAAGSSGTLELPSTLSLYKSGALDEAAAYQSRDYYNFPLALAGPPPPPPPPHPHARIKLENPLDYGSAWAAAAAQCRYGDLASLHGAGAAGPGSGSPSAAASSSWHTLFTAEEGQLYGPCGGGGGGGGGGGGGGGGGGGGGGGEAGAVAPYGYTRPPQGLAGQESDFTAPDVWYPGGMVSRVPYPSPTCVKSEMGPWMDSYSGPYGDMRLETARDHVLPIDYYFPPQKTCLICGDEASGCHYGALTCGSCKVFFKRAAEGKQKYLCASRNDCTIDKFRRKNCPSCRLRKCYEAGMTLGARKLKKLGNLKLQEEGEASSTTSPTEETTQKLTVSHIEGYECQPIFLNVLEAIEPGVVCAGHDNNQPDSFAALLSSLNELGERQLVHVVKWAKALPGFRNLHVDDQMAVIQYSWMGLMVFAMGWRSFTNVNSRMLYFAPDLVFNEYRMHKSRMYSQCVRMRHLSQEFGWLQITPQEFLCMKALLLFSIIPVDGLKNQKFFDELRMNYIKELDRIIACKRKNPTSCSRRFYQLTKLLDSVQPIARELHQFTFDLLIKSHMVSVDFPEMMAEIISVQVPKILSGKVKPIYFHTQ
Experimental: (§2) Western Blotting. […] Proteins in cell lysates (40 μg) were separated using electrophoresis on SDS-PAGE and transferred onto PVDF (polyvinylidenedifluoride) membranes. Membranes were blocked in 5% fat-free milk followed by incubation with primary antibodies overnight at 4° C., and the secondary horseradish peroxidase-conjugated anti-rabbit or anti-mouse antibodies. The blots were developed in the Enhanced Chemiluminescence mixture and detected by ImageQuant™ LAS 4000 imaging system (GE). Density of protein bonds were calculated and analyzed by using imageJ software downloaded from the National Institute of Health website.

FL AR and AR-V7 [2] = molecular target: T2, FL AR and AR-V7 (Homo sapiens, UniProt P10275); experiment: Western blotting of FL AR and AR-V7 in VCaP cells; format: cell-based; conditions: full media, 16 h, 2-63, 12b 5 and 15 μM, Enz 10 μM
T2 construct: Whole cell lysates were subjected to Western blotting and probed with the indicated antibodies; endogenous in cells; host or cells: VCaP
T2 sequence (P10275 1-644 isoform P10275-3): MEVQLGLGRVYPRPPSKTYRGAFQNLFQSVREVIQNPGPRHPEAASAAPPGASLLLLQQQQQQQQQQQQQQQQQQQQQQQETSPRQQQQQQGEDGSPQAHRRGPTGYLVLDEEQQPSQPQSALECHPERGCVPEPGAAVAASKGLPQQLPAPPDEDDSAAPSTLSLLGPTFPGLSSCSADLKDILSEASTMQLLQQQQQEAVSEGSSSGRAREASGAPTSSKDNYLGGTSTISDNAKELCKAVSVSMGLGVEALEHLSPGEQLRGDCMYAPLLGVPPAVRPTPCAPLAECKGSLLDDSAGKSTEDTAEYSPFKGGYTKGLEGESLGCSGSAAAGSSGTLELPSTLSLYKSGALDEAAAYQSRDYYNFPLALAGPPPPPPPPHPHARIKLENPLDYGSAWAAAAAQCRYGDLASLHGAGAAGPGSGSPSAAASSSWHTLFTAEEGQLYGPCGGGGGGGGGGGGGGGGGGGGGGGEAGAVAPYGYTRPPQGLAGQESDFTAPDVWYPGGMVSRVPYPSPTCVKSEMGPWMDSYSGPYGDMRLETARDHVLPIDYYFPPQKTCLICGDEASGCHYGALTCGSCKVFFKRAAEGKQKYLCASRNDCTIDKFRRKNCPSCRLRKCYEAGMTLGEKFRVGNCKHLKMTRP
Experimental: as §2

Hsp90, Hsp70, HO-1 = experiment: Western blotting of Hsp90, Hsp70 and HO-1 in VCaP cells; format: cell-based; conditions: 16 h, 5 and 15 μM
Experimental: as §2

[3] = system: AR transcriptional activity in MDA-kb2 cells; experiment: cells; format: cell-based; conditions: DHT 1 nM
Experimental: MDA-kb2-cell-based ARE luciferase assays were performed to assess the influence of 2-63 and related compounds on AR transcriptional activity. […] Upon androgen stimulation and addition of a luciferase substrate, […], and the intensity is proportional to the extent of AR activation. An agent that either antagonistically competes with DHT for AR binding or reduces the expression of AR diminishes luciferase activity/fluorescence signal in this experimental system. […] 10b (an alcohol) and 11 b (an azide) are synthetic precursors of the ITC hybrid 12b.
Luciferase Assay. […] For all procedures, cells were incubated at CO2 free condition. Steady-Glo® (Promega Corp., Madison, WI) reagent was added to culture media with shaking for 10 min. Samples (100 μL) were transferred to an opaque 96-well white plate, and luminescence was measured using a luminometer.

[4] = system: acetylation of α-tubulin and histone H3 (markers for HDAC6 and nuclear HDAC inhibition); experiment: Western blotting of acetylation markers in VCaP cells; format: cell-based; conditions: 16 h, 2-63 and 12b 5 and 15 μM, SAHA 1 μM
Experimental: as §2

C4-2 cells = experiment: MTT viability assay, C4-2 cells; format: cell-based; conditions: 5 μM, 72 h
Description: as §1

LNCaP and RWPE-1 cells = experiment: MTT viability, PCa LNCaP versus non-cancerous RWPE-1 cells; format: cell-based; conditions: 72 h, 2.5 to 10 μM
Description: Because of the better selectivity and water solubility of 2-63 over 12b, 2-63 was used for further in vitro characterization and mechanistic studies.

RWPE-1 cells = experiment: BSO pretreatment plus 2-63, MTT viability, RWPE-1 cells; conditions: BSO up to 100 μM
Experimental: Cell viability was then assessed using an MTT assay.
PCa cells (6×10^3 cells/well) were seeded into 96-well plates overnight and then treated with indicated compounds at indicated concentrations and time durations. The MTT (3-(4, 5-Dimethylthiazol-2-yl)-2,5-diphenyltetrazolium bromide) assay was performed according to the standard protocol. Briefly, MTT (0.5 mg/mL) was incubated with cells at 37° C. for 3 hours. Supernatant was removed, followed by the addition of dimethyl DMSO (100 μl). After incubation for 30 minutes at 37° C., absorbance was read at 570 nm on a microplate reader.

Row | SMILES | IC50 (VCaP cells) [µM] | relative potency in viability reduction, 22Rv1 cells (22Rv1 cells) | FL AR expression (FL AR and AR-V7 [1]) | AR-V7 expression (FL AR and AR-V7 [2]) | Hsp70 protein level (Hsp90, Hsp70, HO-1) | Hsp90 protein level (Hsp90, Hsp70, HO-1) | AR inhibition at 1 μM relative to Enz, 10b and 11b ([3]; 1 μM) | suppression of DHT-stimulated luciferase activity ([3]; 1-5 μM) | AR inhibition at higher concentrations relative to comparators ([3]; 2.5 and 5 μM) | histone H3 acetylation [4] | α-tubulin acetylation ([4]; SFN 15 μM) | relative potency in viability reduction, C4-2 cells (C4-2 cells) | differential anti-proliferative effect, LNCaP vs RWPE-1 cells (LNCaP and RWPE-1 cells) | enhancement of the potency of 2-63 by BSO in RWPE-1 cells (RWPE-1 cells)
1 | CC1(C)C(=O)N(c2ccc(C#N)c(C(F)(F)F)c2)C(=S)N1c1ccc(CCCCCCN=C=S)nc1 [12b, 4-(3-(6-(6-Isothiocyanatohexyl)pyridin-3-yl)-4,4-dimethyl-5-oxo-2-thioxoimidazolidin-1-yl)-2-(trifluoromethyl) benzonitrile] | 3.89 | more effective than 12a and 12b>2-63>PEITC-NAC | seemed to be more effective | seemed to be more effective | significantly induced | did not change | less effective | decreased luciferase activity in a dose-dependent manner | similarly with these non-ITC-containing compounds | did not show significant effects | did not show significant effects | more effective than 12a and 12b>2-63>PEITC-NAC | almost equally suppressed | –
2 | CCCCS(=N)(=O)CCC(N)C(=O)O [BSO, L-buthionine sulfoximine, reference compound] | – | – | – | – | – | – | – | – | – | – | – | – | – | does not notably enhance

From patent publication US12133846B2, “Electrophilic androgen receptor (AR) antagonists for AR downregulation and ferroptosis induction in cancer cells” (priority 2019, dated 2024)
